Data from patent US11098032B2, “Pyran dervatives as CYP11A1 (cytochrome P450 monooxygenase 11A1) inhibitors” (ORION CORPORATION, priority 2016, dated 2021).
pIC50: −log10 of the molar value.

Biological target: T1, CYP11A1 (Homo sapiens, UniProt P05108)
T1 construct: human H295R adrenocortical carcinoma cell line was used as source of enzyme; endogenous in cells; host or cells: H295R human adrenocortical carcinoma cells
T1 sequence (P05108 40-521): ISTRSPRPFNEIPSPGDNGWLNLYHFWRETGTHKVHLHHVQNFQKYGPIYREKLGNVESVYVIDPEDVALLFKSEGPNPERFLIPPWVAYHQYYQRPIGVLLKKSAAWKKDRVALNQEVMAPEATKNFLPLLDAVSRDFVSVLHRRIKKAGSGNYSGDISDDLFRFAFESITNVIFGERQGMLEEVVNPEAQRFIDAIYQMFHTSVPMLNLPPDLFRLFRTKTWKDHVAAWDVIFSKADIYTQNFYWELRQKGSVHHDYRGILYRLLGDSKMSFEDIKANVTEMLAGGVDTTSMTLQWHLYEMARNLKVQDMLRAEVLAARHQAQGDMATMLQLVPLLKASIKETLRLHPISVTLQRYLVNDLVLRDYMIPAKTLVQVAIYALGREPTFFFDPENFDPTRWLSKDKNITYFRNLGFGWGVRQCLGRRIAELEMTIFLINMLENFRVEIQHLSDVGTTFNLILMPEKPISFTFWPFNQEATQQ
Assay: CYP11A1 inhibition: modified isocaproic acid release assay (IARA) in H295R cells
Assay type: cell-based
Conditions: human H295R adrenocortical carcinoma cells treated three days, 3 nM [24,25-3H]-labelled cholesterol, 1% DMSO, 10 concentrations in duplicates; read-out: IC50 of the test compounds on CYP11A1 inhibition
Procedure: The ability of the test compounds to inhibit conversion of cholesterole to pregnenolone and isocaproic acid was measured by modification of isocaproic acid release assay (IARA) described by Ruangwises et. al. (Biology of Reproduction 1991; 45(1):143-50) except that human H295R adrenocortical carcinoma cell line was used as source of enzyme and extraction was done with dextran-coated charcoal suspension (Isomaa, V. et al., Endocrinology 1982; 111(3):833-843). […] To determine the half maximal inhibitory concentration (IC50) of the test compounds on CYP11A1 inhibition, the cells were treated for three days with increasing concentrations of the test compounds in the presence of 3 nM [24,25-3H]-labelled cholesterol (American Radiolabelled Chemicals). The final DMSO concentration was 1%. Cell culture medium was extracted with dextran-coated charcoal suspension and the radiolabelled isocaproic acid was determined by mixing 100 μl of supernatant fraction in 200 μl of scintillation fluid (OptiPhase SuperMix, Perkin Elmer). Radioactivity was measured using a Microbeta scintillation counter (1450 MicroBeta Trilux, Wallac). All the test compounds were studied at 10 concentrations in duplicates.

Row | SMILES | pIC50
1 | N#Cc1ccc(COc2coc(CN3CCc4ccccc4C3)cc2=O)cc1Cl [Compound 118, 2-Chloro-4-(((6-((3,4-dihydroisoquinolin-2(1H)-yl)methyl)-4-oxo-4H-pyran-3-yl)oxy)methyl)benzonitrile] | 5.70 to 6.52
2 | O=C(COc1coc(CN2Cc3ccccc3C2)cc1=O)N1CCC(Cc2ccccc2)CC1 [Compound 155, 5-(2-(4-Benzylpiperidin-1-yl)-2-oxoethoxy)-2-(isoindolin-2-ylmethyl)-4H-pyran-4-one] | 5.70 to 6.52
3 | CS(=O)(=O)c1ccc(COc2coc(CN3Cc4ccc(OC(F)(F)F)cc4C3)cc2=O)cc1 [Compound 37, 5-((4-(Methylsulfonyl)benzyl)oxy)-2-((5-(trifluoromethoxy)isoindolin-2-yl)-methyl)-4H-pyran-4-one] | > 6.82
4 | Cc1ccc(S(=O)(=O)N2CCN(C(=O)COc3coc(CN4Cc5ccccc5C4)cc3=O)CC2)cc1 [Compound 157, 2-(Isoindolin-2-ylmethyl)-5-(2-oxo-2-(4-tosylpiperazin-1-yl)ethoxy)-4H-pyran-4-one] | 5.70 to 6.52
5 | CCS(=O)(=O)N1CC=C(COc2coc(CN3Cc4ccccc4C3)cc2=O)CC1 [Compound 99, 5-((1-(Ethylsulfonyl)-1,2,3,6-tetrahydropyridin-4-yl)methoxy)-2-(isoindolin-2-ylmethyl)-4H-pyran-4-one] | 6.52 to 6.82
6 | CC1c2ccccc2CCN1Cc1cc(=O)c(OCc2ccc(C(C)(C)O)cc2)co1 (stereo not shown) [Compound 59, 5-((4-(2-Hydroxypropan-2-yl)benzyl)oxy)-2-((1-methyl-3,4-dihydroisoquinolin-2(1H)-yl)methyl)-4H-pyran-4-one] | 5.70 to 6.52
7 | CC(C)CC(=O)C(=O)N1CCC(COc2coc(CN3Cc4ccccc4C3)cc2=O)CC1 [Compound 249, 1-(4-(((6-(Isoindolin-2-ylmethyl)-4-oxo-4H-pyran-3-yl)oxy)methyl)piperidin-1-yl)-4-methylpentane-1,2-dione] | > 6.82

The remaining lines, values ahead:

Row | pIC50 | SMILES
8 | > 6.82 | CNS(=O)(=O)c1ccc(COc2coc(CN3Cc4ccccc4C3)cc2=O)cc1 [Compound 8, 4-(((6-(Isoindolin-2-ylmethyl)-4-oxo-4H-pyran-3-yl)oxy)methyl)-N-methylbenzenesulfonamide]
9 | > 6.82 | O=C(c1ccc(COc2coc(CN3Cc4ccccc4C3)cc2=O)cc1)N1CCCC1 [Compound 122, 2-(Isoindolin-2-ylmethyl)-5-((4-(pyrrolidine-1-carbonyl)benzyl)oxy)-4H-pyran-4-one]
10 | 6.52 to 6.82 | CC(=O)NC(C)(C)c1ccc(COc2coc(CN3Cc4ccccc4C3)cc2=O)cc1 [Compound 69, N-(2-(4-(((6-(Isoindolin-2-ylmethyl)-4-oxo-4H-pyran-3-yl)oxy)methyl)phenyl)-propan-2-yl)acetamide]
11 | 5.70 to 6.52 | NC(=O)c1ccc(COc2coc(CN3Cc4ccccc4C3)cc2=O)cc1 [Compound 57, 4-(((6-(Isoindolin-2-ylmethyl)-4-oxo-4H-pyran-3-yl)oxy)methyl)benzamide]
12 | > 6.82 | C=C(C)c1ccc(COc2coc(CN3Cc4ccccc4C3)cc2=O)cc1 [Compound 47]
13 | > 6.82 | CC(C)N(C(=O)c1ccc(COc2coc(CN3Cc4ccccc4C3)cc2=O)cc1)C(C)C [Compound 134]
14 | > 6.82 | CC(C)(C)NC(=O)c1ccc(COc2coc(CN3Cc4ccccc4C3)cc2=O)cc1 [Compound 131, N-(tert-Butyl)-4-(((6-(isoindolin-2-ylmethyl)-4-oxo-4H-pyran-3-yl)oxy)methyl)-benzamide]
15 | 5.70 to 6.52 | O=C(c1ccc(COc2coc(CN3Cc4ccccc4C3)cc2=O)cc1)N1CCCC(O)C1 (stereo not shown) [Compound 160, 5-((4-(3-Hydroxypiperidine-1-carbonyl)benzyl)oxy)-2-(isoindolin-2-ylmethyl)-4H-pyran-4-one]
16 | 6.52 to 6.82 | O=C(c1ccc(COc2coc(CN3Cc4ccccc4C3)cc2=O)cc1)N1CC(F)(F)C1 [Compound 158, 5-((4-(3,3-Difluoroazetidine-1-carbonyl)benzyl)oxy)-2-(isoindolin-2-ylmethyl)-4H-pyran-4-one]
